Test results from US8513227B2, “Inhibition of inflammatory cytokine production with tanshinones” (The Feinstein Institute for Medical Research, priority 2006, dated 2013).

System: TNF
Experiment: LPS-mediated TNF secretion in RAW 264.7 macrophages (ELISA)
Format: cell-based, murine
Details: macrophages stimulated with LPS >200 ng/ml
Method: Cell culture. Murine macrophage-like RAW 264.7 cells were obtained from the American Type Culture Collection (ATCC, Rockville, Md.), and primary peritoneal macrophages were isolated from Balb/C mice (male, 7-8 weeks, 20-25 grams) at 2-3 days after intraperitoneal injection of 2 ml thioglycollate broth (4%) as previously described (Chen et al. 2004; Rendon-Mitchell et al. 2003). Murine macrophages were pre-cultured in RPMI 1640 medium (Gibco BRL, Grand Island, N.Y.) supplemented with 10% fetal bovine serum (FBS) and 2 mmol/L glutamine. Human peripheral blood mononuclear cells (HuPBMCs) were isolated from the blood of healthy donors (Long Island Blood Bank, Melville, N.Y.) by density gradient centrifugation through Ficoll (Ficoll-Paque PLUS, Pharmacia, Piscataway, N.J.), and cultured in RPMI 1640 supplemented with 10% heat-inactivated human serum/0.2 mM L-glutamine as previously described (Rendon-Mitchell et al. 2003). LPS stimulation. […] The levels of TNF in the culture medium or serum were determined using commercial enzyme linked immunosorbent assay (ELISA) kits (Catalog no. MTA00, R & D Systems, Minneapolis, Minn.) with reference to standard curves of purified recombinant TNF at various dilutions as previously described (Chen et al. 2004; Rendon-Mitchell et al. 2003; Wang et al. 2006).

Cc1c(S(=O)(=O)[O-])oc2c1C(=O)C(=O)c1c-2ccc2c1CCCC2(C)C.[Na+] [TSNIIA-SS, tanshinone IIA sodium sulfonate]
inhibitory effects on TNF release at higher LPS: often lost
